Laboratory results published in US20240109972A1, “ANTIBODY AND TAXANE COMBINATION THERAPY” (Genmab A/S, priority 2020, published 2024).

Tested on: solid malignant tumors
Test: GEN1046 Phase I dose escalation (NCT03917381), response by RECIST v1.1
Type: in vivo, human
Excerpt: The resistance to, failure to respond to and/or relapse from treatment with a binding agent of the invention and/or other therapeutic agent(s) may be determined according to the Response Evaluation Criteria In Solid Tumors; version 1.1 (RECIST Criteria v1.1).
The “best overall response” is the best response recorded from the start of the treatment until disease progression/recurrence (the smallest measurements recorded since the treatment started will be used as the reference for PD). Subjects with CR or PR are considered to be objective response. Subjects with CR, PR or SD are considered to be in disease control. Subjects with NE are counted as non-responders. […]
Clinical trial on GCT1046-01 (ClinicalTrials.gov Identifier: NCT03917381) was designed as a two-part trial, including an ongoing dose escalation part and a planned expansion part.
The trial consists of 2 parts; a First-in-Human (FIH) dose escalation (Phase I) and an expansion (Phase 11a).
For dose escalation, subject was required to be a man or […] and was required to have measurable disease according to RECIST 1.1.

[1] = six patients with NSCLC, prior checkpoint immunotherapy

## GEN1046: PD-L1×4-1BB bispecific antibody: PD-L1-547-FEAL combined with CD137-009-HC7LC2-FEAR (SEQ ID NOs: 1, 5, 21, 19; 8, 12, 22, 20)
800 mg (N 9), Oct. 12, 2020
  Confirmed PD (Progressive Disease), patients: 2
  Confirmed PR (Partial Response), patients: 0
  Confirmed SD (Stable Disease), % of patients: 55.6%
  Confirmed SD (Stable Disease), patients: 5
  Disease Control (PR + PR + SD) Rate, %: 55.6%
  Disease Control (PR + PR + SD) Rate, patients: 5
  NE (Not Evaluable), % of patients: 22.2%
  NE (Not Evaluable), patients: 2
  Objective Response (CR + PR) Rate, patients: 0
  PD (Progressive Disease), % of patients: 22.2%
  PD (Progressive Disease), patients: 2
  PR (Partial Response), patients: 0
1200 mg (N 4), Oct. 12, 2020
  CR (Complete Response), patients: 0
  Confirmed CR (Complete Response), patients: 0
  Confirmed Disease Control (PR + PR + SD) Rate, %: 75.0%
  Confirmed Disease Control (PR + PR + SD) Rate, patients: 3
  Confirmed NE (Not Evaluable), patients: 0
  Confirmed Objective Response (CR + PR) Rate, patients: 0
  Confirmed PD (Progressive Disease), % of patients: 25.0%
  Confirmed PD (Progressive Disease), patients: 1
  Confirmed PR (Partial Response), patients: 0
  Confirmed SD (Stable Disease), % of patients: 75.0%
  Confirmed SD (Stable Disease), patients: 3
  Disease Control (PR + PR + SD) Rate, %: 75.0%
  Disease Control (PR + PR + SD) Rate, patients: 3
  NE (Not Evaluable), patients: 0
  Objective Response (CR + PR) Rate, patients: 0
  PD (Progressive Disease), % of patients: 25.0%
  PD (Progressive Disease), patients: 1
  PR (Partial Response), patients: 0
ICI pre-treated NSCLC
  Partial responses, patients: 2
Total (N 61), Oct. 12, 2020
  CR (Complete Response), patients: 0
  Confirmed CR (Complete Response), patients: 0
  Confirmed Disease Control (PR + PR + SD) Rate, %: (65.6%)
  Confirmed Disease Control (PR + PR + SD) Rate, patients: 40
  Confirmed NE (Not Evaluable), % of patients: (11.5%)
  Confirmed NE (Not Evaluable), patients: 7
  Confirmed Objective Response (CR + PR) Rate, %: (3.3%)
  Confirmed Objective Response (CR + PR) Rate, patients: 2
  Confirmed PD (Progressive Disease), % of patients: (23.0%)
  Confirmed PD (Progressive Disease), patients: 14
  Confirmed PR (Partial Response), % of patients: (3.3%)
  Confirmed PR (Partial Response), patients: 2
  Confirmed SD (Stable Disease), % of patients: (62.3%)
  Confirmed SD (Stable Disease), patients: 38
  Disease Control (PR + PR + SD) Rate, patients: 40
  NE (Not Evaluable), % of patients: (11.5%)
  NE (Not Evaluable), patients: 7
  Objective Response (CR + PR) Rate, %: (6.6%)
  Objective Response (CR + PR) Rate, patients: 4
  PD (Progressive Disease), % of patients: (23.0%)
  PD (Progressive Disease), patients: 14
  PR (Partial Response), % of patients: (6.6%)
Total (n = 30), 3 Feb. 2020
  BOR Complete Response, (percent): (0)
  BOR Complete Response, patients: 0
  BOR Partial Response, (percent): (10)
  BOR Partial Response, patients: 3
  BOR Progressive Disease, (percent): (26.6)
  BOR Progressive Disease, patients: 8
  BOR Stable Disease, (percent): (63.3)
  BOR Stable Disease, patients: 19
Ovarian cancer
  Partial responses, patients: 1
[1]
  Patients who maintained stable disease: two
  Patients with progressive disease: two
  Patients with unconfirmed PR: two
Triple negative breast cancer
  Partial responses, patients: 1
